This is an account of results in patent publication US7346384B2, “Method of magnetic resonance investigation of a sample using a nuclear spin polarised MR imaging agent” (GE Healthcare AS, priority 2000, dated 2008).

The structures appear in SMILES notation.

Data set [1] can be described thus: water solubility. Type of data set: physicochemical.
The nature of data set [2]: T1 relaxation time of the reporter compound. Conditions: high T1 agent; 15N storage nucleus; no field or temperature printed for this value. Type of data set: physicochemical.

On to `[2H]C([2H])(F)C([2H])([2H])[N+](C)(C)C` [molecule (I)], for which, in data set [1], the water solubility entry is “good”. Further, the T1 value result in data set [2] is “about 3 minutes”.
